Experimental data taken from patent publication US20100267561A1, “HERBICIDAL PYRIDAZINONE DERIVATIVES” (priority 2007, published 2010).

Experiments:
Type in all cases: in vivo
[1] = tested on: Russian thistle (Salsola iberica); assay: Test B pre-/postemergence plant response; settings: Preemergence
In short: (§1)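 Seeds were sown and sprayed preemergence, while plants at 2 to 18 cm (1- to 4-leaf stage) got postemergence sprays. Compounds were formulated in a non-phytotoxic solvent mixture with surfactant. After 13 to 15 days in a greenhouse, injury was rated visually against untreated controls, 0 (no effect) to 100 (complete control).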

[2] = tested on: catchweed bedstraw (Galium aparine); assay: Test B pre-/postemergence plant response; settings: Preemergence
In short: as §1

[3] = tested on: cocklebur (Xanthium strumarium); assay: Test B pre-/postemergence plant response; settings: for Cocklebur plant response rating: 8 g ai/ha
In short: as §1

[4] = tested on: common (oilseed) sunflower (Helianthus annuus); assay: Test B pre-/postemergence plant response; settings: Preemergence
In short: as §1

[5] = tested on: downy bromegrass (Bromus tectorum); assay: Test B pre-/postemergence plant response; settings: for Bromegrass, Downy plant response rating: 8 g ai/ha
In short: as §1

[6] = tested on: goosegrass (Eleusine indica); assay: Test B pre-/postemergence plant response; settings: for Goosegrass plant response rating: 8 g ai/ha
In short: as §1

[7] = tested on: green foxtail (Setaria viridis); assay: Test B pre-/postemergence plant response; settings: for Foxtail, Green plant response rating: 8 g ai/ha
In short: as §1

[8] = tested on: large crabgrass (Digitaria sanguinalis); assay: Test B pre-/postemergence plant response; settings: for Crabgrass, Large plant response rating: 8 g ai/ha
In short: as §1

[9] = tested on: pigweed (Amaranthus retroflexus); assay: Test B pre-/postemergence plant response; settings: for Pigweed plant response rating: 8 g ai/ha
In short: as §1

soybean (Glycine max) = assay: Test B pre-/postemergence plant response
In short: as §1

[10] = tested on: velvetleaf (Abutilon theophrasti); assay: Test B pre-/postemergence plant response; settings: for Velvetleaf plant response rating: 8 g ai/ha
In short: as §1

[11] = tested on: wheat (Triticum aestivum); assay: Test B pre-/postemergence plant response; settings: for Wheat plant response rating: 8 g ai/ha
In short: as §1

[12] = tested on: woolly cupgrass (Eriochloa villosa); assay: Test B pre-/postemergence plant response; settings: for Cupgrass, Woolly plant response rating: 8 g ai/ha
In short: as §1

rice (Oryza sativa) = assay: Test B flooded paddy test plant response
In short: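 Rice, umbrella sedge, ducksalad and barnyardgrass at 2-leaf stage; pots flooded to 3 cm, compounds applied into paddy water, depth held throughout. Greenhouse 13 to 15 days, then visual rating vs untreated controls on 0–100 scale (0 no effect, 100 complete control); dash means no test result.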

[13] = 16 g ai/ha, scale 0 to 100 (0 no effect, 100 complete control)
[14] = 31 g ai/ha, 0 to 100 scale, 0 no effect, 100 complete control
[15] = Postemergence, 16 g ai/ha, scale 0 to 100
[16] = Postemergence, 31 g ai/ha, scale 0 to 100, 0 no effect, 100 complete control
[17] = Postemergence, 62 g ai/ha, scale 0 to 100
[18] = Preemergence, 16 g ai/ha, scale 0 to 100 (0 no effect, 100 complete control)
[19] = Preemergence, 31 g ai/ha, 0 to 100 scale, 0 no effect, 100 complete control
[20] = Preemergence, 62 g ai/ha, scale 0 to 100

CCc1cc(-c2ccc(Cl)cc2)nn1-c1c(O)cnn(C)c1=O [Compound 21]
Plant response rating, Russian Thistle [1, 13]: 0 | Plant response rating, Russian Thistle [1, 14]: 0 | Plant response rating, Russian Thistle ([1]; 62 g ai/ha, scale 0 to 100): 0 | Russian Thistle plant response rating ([1]; 8 g ai/ha, scale 0 to 100): 0 | Plant response rating, Galium [2, 13]: 0 | Plant response rating, Galium [2, 14]: 0 | Plant response rating, Galium ([2]; 62 g ai/ha, scale 0 to 100): 90 | Galium plant response rating ([2]; 8 g ai/ha, scale 0 to 100): 0 | Cocklebur plant response rating ([3]; postemergence, 0-100 scale): 0 | Plant response rating, Cocklebur [3, 15]: 0 | Plant response rating, Cocklebur [3, 16]: 0 | Plant response rating, Cocklebur [3, 17]: 0 | Plant response rating, Cocklebur [3, 18]: 0 | Plant response rating, Cocklebur [3, 19]: 0 | Plant response rating, Cocklebur [3, 20]: 0 | Cocklebur plant response rating ([3]; Preemergence, scale 0 to 100): 0 | Plant response rating, Sunflower [4, 13]: 0 | Plant response rating, Sunflower [4, 14]: 0 | Plant response rating, Sunflower ([4]; 62 g ai/ha, scale 0 to 100): 0 | Bromegrass, Downy plant response rating ([5]; postemergence, 0-100 scale): 55 | Plant response rating, Bromegrass, Downy [5, 15]: 55 | Plant response rating, Bromegrass, Downy [5, 16]: 80 | Plant response rating, Bromegrass, Downy [5, 17]: 85 | Plant response rating, Bromegrass, Downy [5, 18]: 50 | Plant response rating, Bromegrass, Downy [5, 19]: 60 | Plant response rating, Bromegrass, Downy [5, 20]: 100 | Bromegrass, Downy plant response rating ([5]; Preemergence, scale 0 to 100): 0 | Goosegrass plant response rating ([6]; postemergence, 0-100 scale): 65 | Plant response rating, Goosegrass [6, 15]: 80 | Plant response rating, Goosegrass [6, 16]: 95 | Plant response rating, Goosegrass [6, 17]: 100 | Plant response rating, Goosegrass [6, 18]: 80 | Plant response rating, Goosegrass [6, 19]: 95 | Plant response rating, Goosegrass [6, 20]: 100 | Goosegrass plant response rating ([6]; Preemergence, scale 0 to 100): 10 | Foxtail, Green plant response rating ([7]; postemergence, 0-100 scale): 95 | Plant response rating, Foxtail, Green [7, 15]: 100 | Plant response rating, Foxtail, Green [7, 16]: 100 | Plant response rating, Foxtail, Green [7, 17]: 100 | Plant response rating, Foxtail, Green [7, 18]: 100 | Plant response rating, Foxtail, Green [7, 19]: 100 | Plant response rating, Foxtail, Green [7, 20]: 100 | Foxtail, Green plant response rating ([7]; Preemergence, scale 0 to 100): 100 | Crabgrass, Large plant response rating ([8]; postemergence, 0-100 scale): 95 | Plant response rating, Crabgrass, Large [8, 15]: 100 | Plant response rating, Crabgrass, Large [8, 16]: 100 | Plant response rating, Crabgrass, Large [8, 17]: 100 | Plant response rating, Crabgrass, Large [8, 18]: 80 | Plant response rating, Crabgrass, Large [8, 19]: 80 | Plant response rating, Crabgrass, Large [8, 20]: 100 | Crabgrass, Large plant response rating ([8]; Preemergence, scale 0 to 100): 0 | Pigweed plant response rating ([9]; postemergence, 0-100 scale): 0 | Plant response rating, Pigweed [9, 15]: 0 | Plant response rating, Pigweed [9, 16]: 0 | Plant response rating, Pigweed [9, 17]: 0 | Plant response rating, Pigweed [9, 18]: 0 | Plant response rating, Pigweed [9, 19]: 0 | Plant response rating, Pigweed [9, 20]: 0 | Pigweed plant response rating ([9]; Preemergence, scale 0 to 100): 0 | Soybean plant response rating (soybean (Glycine max); 8 g ai/ha, postemergence, 0-100 scale): 0 | Plant response rating, Soybean (soybean (Glycine max); [15]): 0 | Plant response rating, Soybean (soybean (Glycine max); [16]): 0 | Plant response rating, Soybean (soybean (Glycine max); [17]): 10 | Plant response rating, Soybean (soybean (Glycine max); [19]): 0 | Velvetleaf plant response rating ([10]; postemergence, 0-100 scale): 0 | Plant response rating, Velvetleaf [10, 15]: 0 | Plant response rating, Velvetleaf [10, 16]: 0 | Plant response rating, Velvetleaf [10, 17]: 0 | Plant response rating, Velvetleaf [10, 19]: 0 | Plant response rating, Velvetleaf [10, 20]: 0 | Velvetleaf plant response rating ([10]; Preemergence, scale 0 to 100): 0 | Wheat plant response rating ([11]; postemergence, 0-100 scale): 50 | Plant response rating, Wheat [11, 15]: 85 | Plant response rating, Wheat [11, 16]: 90 | Plant response rating, Wheat [11, 17]: 100 | Plant response rating, Wheat [11, 18]: 30 | Plant response rating, Wheat [11, 19]: 85 | Plant response rating, Wheat [11, 20]: 95 | Wheat plant response rating ([11]; Preemergence, scale 0 to 100): 0 | Cupgrass, Woolly plant response rating ([12]; postemergence, 0-100 scale): 100 | Plant response rating, Cupgrass, Woolly [12, 15]: 100 | Plant response rating, Cupgrass, Woolly [12, 16]: 100 | Plant response rating, Cupgrass, Woolly [12, 17]: 100 | Plant response rating, Cupgrass, Woolly [12, 18]: 100 | Plant response rating, Cupgrass, Woolly [12, 20]: 100 | Cupgrass, Woolly plant response rating ([12]; Preemergence, scale 0 to 100): 60 | Plant response rating, Rice (rice (Oryza sativa); Flood (flooded paddy test), 62 g ai/ha, scale 0 to 100, 0 no effect, 100 complete control): 0 | Plant response rating, Rice (rice (Oryza sativa); Flood (flooded paddy test), 125 g ai/ha, scale 0 to 100, 0 no effect, 100 complete control): 20 | Plant response rating, Rice (rice (Oryza sativa); Flood (flooded paddy test), 250 g ai/ha, scale 0 to 100, 0 no effect, 100 complete control): 70 | Plant response rating, Rice (rice (Oryza sativa); Flood, 31 g ai/ha, scale 0 to 100): 0
